# Assay results as given in patent publication US20110040086A1, “Novel Beta-Lactam Antibiotics, Methods for Their Production, and Their Use” (DRITTE PATENTPORTFOLIO BETEILIGUNGSGESELLSCHAFT MB, priority 2007, published 2011).
# Legend:
# S. epidermidis 125 = assay: agar diffusion test (Test System II, multi-resistant germs); assay type: cell-based, Staphylococcus epidermidis
# Description: (§1) The test substances are deposited in stepped quantities (10 μg, 50 μg, 100 μg) onto active ingredient carriers (sensi-discs). For this purpose, the test substances are dissolved in methanol or A. dest. according to their solubility. Each inoculated plate is fitted with 3 test sheets.
# (§2) Test System II (Effect Against Multi-Resistant Germs)
# (§3) For this purpose, bacteria is cultivated on Müller-Hinton-Agar II plates.
# (§4) With 1-1.5 ml physiological saline solution, a bacteria suspension of McFarland 0.5 (corresponds to a bacteria density of 150×10^6 germs) is produced. Then, with a sterile glass rod, a small drop of bacteria suspension is placed on the Müller-Hinton-Agar plate and coated in three layers (vertical, horizontal, and transverse). Thereafter, the sensi-discs with the novel semi-synthetic test substances are placed on top. The fitted plates are incubated for 18-20 hours at 37° C. After incubation, the diameters of the zones of inhibition are read as a measure for the antimicrobial activity of the novel semi-synthetic test substances.
# S. aureus 36881 = assay: as above; assay type: cell-based, Staphylococcus aureus; parameters: key: r = resistant (no detectable zone of inhibition)
# Description: as §1, §2, §3, §4
# S. aureus 39105 = assay: as above; assay type: cell-based, Staphylococcus aureus; parameters: key: r = resistant (no detectable zone of inhibition)
# Description: as §1, §2, §3, §4
# S. aureus 526 = assay: as above; assay type: cell-based, Staphylococcus aureus; parameters: key: r = resistant (no detectable zone of inhibition)
# Description: as §1, §2, §3, §4
# S. aureus 34289 = assay: as above; assay type: cell-based, Staphylococcus aureus; parameters: key: r = resistant (no detectable zone of inhibition)
# Description: as §1, §2, §3, §4
# S. aureus 520 = assay: as above; assay type: cell-based, Staphylococcus aureus; parameters: key: r = resistant (no detectable zone of inhibition)
# Description: as §1, §2, §3, §4
# S. aureus 33490 = assay: as above; assay type: cell-based, Staphylococcus aureus; parameters: key: r = resistant (no detectable zone of inhibition)
# Description: as §1, §2, §3, §4
# [1] = system: S. aureus North Germany strain; assay: as above; assay type: cell-based, Staphylococcus aureus; parameters: key: r = resistant (no detectable zone of inhibition)
# Description: as §1, §2, §3, §4
# E. faecalis 945 = assay: as above; assay type: cell-based, Enterococcus faecalis; parameters: key: r = resistant (no detectable zone of inhibition)
# Description: as §1, §2, §3, §4
# [2] = system: Enterococcus faecalis 769; assay: as above; assay type: cell-based; parameters: key: r = resistant (no detectable zone of inhibition)
# Description: as §1, §2, §3, §4
# [3] = system: Staphylococcus aureus 315; assay: as above; assay type: cell-based; parameters: key: r = resistant (no detectable zone of inhibition)
# Description: as §1, §2, §3, §4
# S. aureus ATCC 6538 = assay: as above; assay type: cell-based, Staphylococcus aureus
# Description: as §1, §2, §3, §4
# S. aureus 38418 = assay: as above; assay type: cell-based, Staphylococcus aureus
# Description: as §1, §2, §3, §4
# [4] = system: Bacillus megaterium SBUG 1152; assay: agar diffusion test (Test System 1, antimicrobial effect); assay type: cell-based
# Description: (§5) Test System 1 (Antimicrobial Effect)
# (§6) The test germs Escherichia coli SBUG 1135 and Bacillus megaterium SBUG 1152 are drawn overnight (17 hours at 37° C.) in 5 ml nutrient medium II. The incubation is performed in a shaking incubator (INFORS AG CH 4103, Bottmingen, Switzerland) at a shaking frequency of 180 rpm.
# (§7) After 17 h incubation time, Escherichia coli has reached a cell density of ca. 2.4×10^10 cells/ml and Bacillus megaterium a cell density of ca. 2.1×10^8 cells/ml.
# (§8) The seeding of bacteria in agar is selected so that, dense, but not confluent individual colonies develop after the incubation.
# Bacillus megaterium: 0.1 ml of non-diluted overnight culture (ÜN) in 10 ml nutrient agar corresponds to a cell count of 10^6.
# (§9) The inoculated nutrient agar is set in sterile Petri dishes and left standing for a few minutes for drying.
# as §1
# (§10) After a 20-hour incubation time at 37° C., the zones of inhibition around the individual test sheets could be measured. The diameter of the zone of inhibition is specified in mm.
# B. subtilis AWD 166 = assay: agar diffusion test (antimicrobial effect); assay type: cell-based, Bacillus subtilis
# Description: as §8, §9, §1, §10
# [5] = system: Escherichia coli SBUG 1135; assay: agar diffusion test (Test System 1, antimicrobial effect); assay type: cell-based; parameters: key: r = resistant (no detectable zone of inhibition)
# Description: as §5, §6, §7, §8
# Escherichia coli: the ÜN is diluted 1:100 with physiological saline solution, of which 0.1 ml is converted into 10 ml nutrient agar. That corresponds to a cell count of 10^6.
# as §9, §1, §10
# S. epidermidis 1068 = assay: agar diffusion test (Test System II, multi-resistant germs); assay type: cell-based, Staphylococcus epidermidis; parameters: key: r = resistant (no detectable zone of inhibition)
# Description: as §1, §2, §3, §4
# S. epidermidis 847 = assay: as above; assay type: cell-based, Staphylococcus epidermidis; parameters: key: r = resistant (no detectable zone of inhibition)
# Description: as §1, §2, §3, §4
# S. epidermidis 563 = assay: as above; assay type: cell-based, Staphylococcus epidermidis; parameters: key: r = resistant (no detectable zone of inhibition)
# Description: as §1, §2, §3, §4
# S. epidermidis 1071 = assay: as above; assay type: cell-based, Staphylococcus epidermidis; parameters: key: r = resistant (no detectable zone of inhibition)
# Description: as §1, §2, §3, §4
compound,measurement,setting,value
"COC(=O)C1=C(NC(C(=O)NC2C(=O)N3C(C(=O)O)=C(C)CSC23)c2ccc(O)cc2)C(=O)C=CC1=O (stereo not drawn) [1c, 7-[2-(4-hydroxyphenyl)-2-(2-methoxycarbonyl-3,6-dioxocyclohexa-1,4-dienylamino)-acetylamino]-desacetoxycephalosporanic acid]",Diameter of zone of inhibition,S. epidermidis 125; Quantity n 0.019,12 mm
same,Diameter of zone of inhibition,S. epidermidis 125; Quantity n 0.1,24 mm
same,Diameter of zone of inhibition,S. epidermidis 125; Quantity n 0.19,28 mm
same,Diameter of zone of inhibition,S. aureus 36881; Quantity n 0.019,r
same,Diameter of zone of inhibition,S. aureus 36881; Quantity n 0.1,r
same,Diameter of zone of inhibition,S. aureus 36881; Quantity n 0.19,14 mm
same,Diameter of zone of inhibition,S. aureus 39105; Quantity n 0.019,r
same,Diameter of zone of inhibition,S. aureus 39105; Quantity n 0.1,r
same,Diameter of zone of inhibition,S. aureus 39105; Quantity n 0.19,12 mm
same,Diameter of zone of inhibition,S. aureus 526; Quantity n 0.019,r
same,Diameter of zone of inhibition,S. aureus 526; Quantity n 0.1,r
same,Diameter of zone of inhibition,S. aureus 526; Quantity n 0.19,r
same,Diameter of zone of inhibition,S. aureus 34289; Quantity n [mol] 0.019,r
same,Diameter of zone of inhibition,S. aureus 34289; Quantity n [mol] 0.1,r
same,Diameter of zone of inhibition,S. aureus 34289; Quantity n [mol] 0.19,r
same,Diameter of zone of inhibition,S. aureus 520; Quantity n [mol] 0.019,r
same,Diameter of zone of inhibition,S. aureus 520; Quantity n [mol] 0.1,r
same,Diameter of zone of inhibition,S. aureus 520; Quantity n [mol] 0.19,r
same,Diameter of zone of inhibition,S. aureus 33490; Quantity n [μmol] 0.019,r
same,Diameter of zone of inhibition,S. aureus 33490; Quantity n [μmol] 0.1,14 mm
same,Diameter of zone of inhibition,S. aureus 33490; Quantity n [μmol] 0.19,20 mm
same,Diameter of zone of inhibition,[1]; Quantity n 0.019,r
same,Diameter of zone of inhibition,[1]; Quantity n 0.1,10 mm
same,Diameter of zone of inhibition,[1]; Quantity n 0.19,14 mm
same,Diameter of zone of inhibition,E. faecalis 945; Quantity n 0.019,r
same,Diameter of zone of inhibition,E. faecalis 945; Quantity n 0.1,r
same,Diameter of zone of inhibition,E. faecalis 945; Quantity n 0.19,r
same,Diameter of zone of inhibition,[2]; Quantity n 0.019,r
same,Diameter of zone of inhibition,[2]; Quantity n 0.1,r
same,Diameter of zone of inhibition,[2]; Quantity n 0.19,r
same,Diameter of zone of inhibition,[3]; Quantity n 0.019,r
same,Diameter of zone of inhibition,[3]; Quantity n 0.1,r
same,Diameter of zone of inhibition,[3]; Quantity n 0.19,12 mm
same,Diameter of zone of inhibition,S. aureus ATCC 6538; Quantity n 0.019,18 mm
same,Diameter of zone of inhibition,S. aureus ATCC 6538; Quantity n 0.1,26 mm
same,Diameter of zone of inhibition,S. aureus ATCC 6538; Quantity n 0.19,30 mm
same,Diameter of zone of inhibition,S. aureus 38418; Quantity n [mol] 0.019,10 mm
same,Diameter of zone of inhibition,S. aureus 38418; Quantity n [mol] 0.1,22 mm
same,Diameter of zone of inhibition,S. aureus 38418; Quantity n [mol] 0.19,28 mm
same,Diameter of zone of inhibition,[4]; Quantity n 0.019,22 mm
same,Diameter of zone of inhibition,[4]; Quantity n 0.1,30 mm
same,Diameter of zone of inhibition,[4]; Quantity n 0.19,32 mm
same,Diameter of zone of inhibition,B. subtilis AWD 166; Quantity n 0.019,22 mm
same,Diameter of zone of inhibition,B. subtilis AWD 166; Quantity n 0.1,30 mm
same,Diameter of zone of inhibition,B. subtilis AWD 166; Quantity n 0.19,32 mm
same,Diameter of zone of inhibition,[5]; Quantity n 0.019,r
same,Diameter of zone of inhibition,[5]; Quantity n 0.1,14 mm
same,Diameter of zone of inhibition,[5]; Quantity n 0.19,18 mm
same,Diameter of zone of inhibition,S. epidermidis 1068; Quantity n 0.019,r
same,Diameter of zone of inhibition,S. epidermidis 1068; Quantity n 0.1,14 mm
same,Diameter of zone of inhibition,S. epidermidis 1068; Quantity n 0.19,20 mm
same,Diameter of zone of inhibition,S. epidermidis 847; Quantity n [mol] 0.019,r
same,Diameter of zone of inhibition,S. epidermidis 847; Quantity n [mol] 0.1,14 mm
same,Diameter of zone of inhibition,S. epidermidis 847; Quantity n [mol] 0.19,18 mm
same,Diameter of zone of inhibition,S. epidermidis 563; Quantity n 0.019,r
same,Diameter of zone of inhibition,S. epidermidis 563; Quantity n 0.1,14 mm
same,Diameter of zone of inhibition,S. epidermidis 563; Quantity n 0.19,20 mm
same,Diameter of zone of inhibition,S. epidermidis 1071; Quantity n 0.019,r
same,Diameter of zone of inhibition,S. epidermidis 1071; Quantity n 0.1,14 mm
same,Diameter of zone of inhibition,S. epidermidis 1071; Quantity n 0.19,20 mm
